Assays:
[1] = target: T1, N-acetylglucosamine kinase (PsNagK) (Plesiomonas shigelloides, UniProt R8APY9); experiment: crystal structures (binary 7PA1; ternary with GlcNAc 7P9P); isothermal differential scanning fluorimetry; assay type: binding
T1 construct: gene nagK; His-SUMO tagged P. shigelloides NagK (crystallization)
T1 sequence (R8APY9 1-303): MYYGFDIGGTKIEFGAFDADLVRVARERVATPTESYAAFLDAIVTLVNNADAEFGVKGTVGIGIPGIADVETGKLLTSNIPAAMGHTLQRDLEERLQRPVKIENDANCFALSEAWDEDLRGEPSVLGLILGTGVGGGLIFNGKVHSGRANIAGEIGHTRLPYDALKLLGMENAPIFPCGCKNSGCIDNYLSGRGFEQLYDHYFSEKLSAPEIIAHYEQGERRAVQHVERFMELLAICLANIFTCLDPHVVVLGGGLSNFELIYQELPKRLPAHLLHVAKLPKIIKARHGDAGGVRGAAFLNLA

[2] = target: T1, N-acetylglucosamine kinase (PsNagK); experiment: crystal structure; isothermal differential scanning fluorimetry; assay type: binding

Molecule Nc1ncnc2c1ncn2[C@@H]1O[C@H](COP(=O)(O)OP(=O)(O)NP(=O)(O)O)[C@@H](O)[C@H]1O [AMP-PNP] has a Kd [1] of 2200 ± 600 µM.

In the case of CC(=O)N[C@@H]1[C@@H](O)[C@H](O)[C@@H](CO)O[C@@H]1O [GlcNAc, N-acetyl-D-glucosamine], the Kd [2] is reported as 230 ± 20 µM.

Reference: publication PMC10031466, “The ROK kinase N-acetylglucosamine kinase uses a sequential random enzyme mechanism with successive conformational changes upon each substrate binding” (The Journal of Biological Chemistry, 2023)
